The subject of data set [1] is Plutella xylostella. The experiment in a line: Insecticidal test on Plutella xylostella (cabbage leaves soaked). In kind it is in vivo. The conditions noted are these: 144 h, 500 ppm solution, 3rd-instar larvae, 6 days after, 25° C. The procedure: Leaves of cabbage were soaked in the solutions for about 10 seconds. After the soaking, the leaves were dried in air and placed in dishes. In each dish, five 3rd-instar larvae of Plutella xylostella were released, and the dishes were covered with lids and placed in an incubator at 25° C. 6 Days after, dead insects in the dishes were counted, and the mortality was calculated by using the same equation as in Test Example 1. The test was carried out in duplicate.

A further data set relates to Spodoptera litura. The experiment in a line: Insecticidal test on Spodoptera litura (cabbage leaves soaked). In kind it is in vivo. As to conditions: 144 h, 500 ppm solution, 3rd-instar larvae, 6 days after, 25° C. The procedure: Leaves of cabbage were soaked in the solutions for about 10 seconds. After the soaking, the leaves were dried in air and placed in dishes. In each dish, five 3rd-instar larvae of Spodoptera litura were released, and the dishes were covered with lids and placed in an incubator at 25° C. 6 Days after, dead insects in the dishes were counted, and the mortality was calculated by using the same equation as in Test Example 1. The test was carried out in duplicate.

In a further data set the test system is Rhipicephalus sanguineus. The data set can be described thus: Test on the effect on Rhipicephalus sanguineus (thin film in glass container). As to conditions: 96 h, application dose 10 μg/cm^2, protonymphs, 4 days after release, 25° C. In kind it is in vivo. As to the method: (§1) 350 μl of the solutions were applied to the bottoms and the side walls of glass containers with an inner wall surface area of 35 cm^2, and acetone was volatilized to prepare thin films of the compounds on the inner walls of the glass containers. Since the inner wall surface area of each glass container was 35 cm^2, the application dose was 10 μg/cm^2.
To each glass container, five protonymphs (male and female) of Rhipiceohalus sanguineus were released, and the containers were covered with lids and placed in an incubator at 25° C. 4 Days after the release of the ticks, dead ticks were counted, and the mortality was calculated by using the same equation as in Test Example 1.

The test system of another data set is Ctenocephalides felis. The experiment in a line: Test on the effect on Ctenocephalides felis (thin film in glass container). In kind it is in vivo. As to conditions: 96 h, application dose 10 μg/cm^2, adults, 4 days after release, 25° C. The procedure: as §1
To each glass container, five adults (male and female) of Ctenocephalides felis were released, and the containers were covered with lids and placed in an incubator at 25° C. 4 Days after the release of the fleas, dead fleas were counted, and the mortality was calculated by using the same equation as in Test Example 1.

Data set [2] deals with Nilaparvata lugens. The experiment in a line: Systemic insecticidal test on Nilaparvata lugens (rice seedling root dip). In kind it is in vivo. As to conditions: 20 ppm solution, rice seedling roots dipped 7 days, 3rd-instar larvae, 6 days after release, 25° C. As to the method:
7 Days after, the rice seedlings were picked and put in test tubes, and in each tube, five 3rd-instar larvae of Nilaparvata lugens were released, and the tubes were capped with sponge and placed in an incubator at 25° C. 6 Days after the release of the insects, dead insects were counted, and the mortality (%) (the number of dead insects÷the number of released insects×100) was calculated. The test was carried out in duplicate.

In data set [3] the test system is Nilaparvata lugens. The data set can be described thus: Insecticidal test on Nilaparvata lugens (rice sheaths soaked). The data set is classed as in vivo. The conditions noted are these: 144 h, 500 ppm solution, 3rd-instar larvae, 6 days after, 25° C. The procedure: Rice sheaths were soaked in the solutions for about 10 seconds. After the soaking, the rice sheaths were dried in air and put in test tubes. In each tube, five 3rd-instar larvae of Nilaparvata lugens were released, and the tubes were capped with sponge and placed in an incubator at 25° C. 6 Days after, dead insects in the test tubes were counted, and the mortality (%) (the number of dead insects÷the number of released insects×100) was calculated. The test was carried out in duplicate.

The next data set relates to Myzus persicae. The experiment in a line: Insecticidal test on Myzus persicae (cabbage leaf spray). The data set is classed as in vivo. The conditions noted are these: 144 h, 500 ppm solution sprayed (2.5 mg/cm^2), apterous adults on cabbage leaves, 6 days after, 25° C. As to the method:
Wet absorbent cotton was laid on glass dishes having an inner diameter of 3 cm, and covered with leaves of cabbage cut into circles of the same diameter, and 4 apterous adults of Myzus persicae were released. […] The solutions were sprayed from a rotary spray tower (2.5 mg/cm^2), and the dishes were covered with lids and placed in an incubator at 25° C. 6 Days after, dead insects were counted, and the mortality was calculated by using the same equation as in Test Example 1. The test was carried out in duplicate.

Data set [4] relates to Plutella xylostella. The data set can be described thus: Soil irrigation test on Plutella xylostella. The data set is classed as in vivo. As to conditions: 144 h, 500 ppm solution, 10 ml soil irrigation of cabbage seedlings, leaves picked 5 days after, 3rd-instar larvae, 6 days after. The procedure:
The soil around the bases of cabbage seedlings (at the 2.5-leaf stage) planted in plastic cups was irrigated with 10 ml of the solutions. After the irrigation, the cabbage seedlings were placed in a greenhouse. 5 Days after the irrigation, leaves of cabbage were picked and placed in dishes. In each dish, five 3rd-instar larvae of Plutella xylostella were released, and the dishes were covered with lids and placed in an incubator at 25° C. 6 Days after, dead insects in the dishes were counted, and the mortality was calculated by using the same equation as in Test Example 1. The test was carried out in duplicate.

The subject of data set [5] is Frankliniella occidentalis. The experiment in a line: Insecticidal activity on Frankliniella occidentalis (kidney bean leaf spray). The data set is classed as in vivo. As to conditions: 48 h, 500 ppm solution sprayed (2.5 mg/cm^2), larvae on kidney bean leaves, 2 days after. The procedure: In styrol cups having an inner diameter of 7 cm, wet filter paper was laid, kidney bean leaves cut into a 3 cm square were laid on the paper, and each leaf was inoculated with 20 larvae of Frankliniella occidentalis. […] 2.5 ml of the solutions were sprayed from a rotary spray tower into the styrol cups (2.5 mg/cm^2).
2 Days after, dead insects were counted, and insect damage on kidney bean leaves was examined. The mortality was calculated by using the same equation as in Test Example 1.
The insect damage degree was evaluated as follows. 1: 0 to 20% insect damage, 2: 20 to 50% insect damage, 3: 50 to 70% insect damage, and 4: 70% or higher insect damge. The test was carried out in duplicate.

Structures are written as SMILES.

The record followed here is patent US10882869B2, “Condensed heterocyclic compounds and pesticides” (NISSAN CHEMICAL CORPORATION, priority 2015, dated 2021).

With `CCSc1c(-c2nc3cc(C(F)(F)F)ncc3n2C)nc2cc(Cl)ccn12` [1-8-006b, 2-[7-chloro-3-(ethylthio)imidazo[1,2-a]pyridin-2-yl]-3-methyl-6-(trifluoromethyl)-3H-imidazo[4,5-c]pyridine], the mortality at 500 ppm in the data set with Plutella xylostella [1] and with Spodoptera litura was no less than 90% in each case. The mortality at 10 µg/cm2 with Rhipicephalus sanguineus and with Ctenocephalides felis was no less than 50% each time.
On to `CCCCC(CC)COC(=O)CCSc1cnc2c(c1)nc(-c1nc3cc(C(F)(F)F)ccn3c1SCC)n2C` (stereo not drawn) [1-1-028b, 2-ethylhexyl 3-((2-(3-(ethylthio)-7-(trifluoromethyl)imidazo[1,2-a]pyridin-2-yl)-3-methyl-3H-imidazo[4,5-b]pyridin-6-yl)thio)propanoate], for which the melting point – broadly, the temperature, or range, at which the solid turns liquid – is 94 to 96 °C.
Turning to `CCSc1c(-c2nc3cc(C(F)(F)F)cnc3n2C)sc2ccc(C(F)(F)F)cc12` [3-1-002b, 2-[3-(ethylthio)-5-(trifluoromethyl)benzo[b]thiophen-2-yl]-3-methyl-6-(trifluoromethyl)-3H-imidazo[4,5-b]pyridine], the mortality at 500 ppm in the data set on Plutella xylostella [1] and in the data set on Spodoptera litura was no less than 90% in each case. For the same compound, the mortality (as a rule, the share of the test organisms that died) at 20 ppm in the data set with Nilaparvata lugens [2] was no less than 90%. For the same compound, the mortality at 10 µg/cm2 in the data set on Rhipicephalus sanguineus and with Ctenocephalides felis was no less than 50% in each case.
In turn, `CCSc1c(-c2nc3cc(C(F)(F)F)cnc3n2C)nc2cnc(C(F)(F)F)cn12` [1-1-029b, 2-[3-(ethylthio)-6-(trifluoromethyl)imidazo[1,2-a]pyrazin-2-yl]-3-methyl-6-(trifluoromethyl)-3H-imidazo[4,5-b]pyridine] returned a melting point of 220 to 222 °C.
On to `CCS(=O)(=O)c1c(-c2nc3cc(C(F)(F)F)cnc3n2C)nc2cc(C(F)(F)F)ccn12` [1-1-002a, 2-[3-(ethylsulfonyl)-7-(trifluoromethyl)imidazo[1,2-a]pyridin-2-yl]-3-methyl-6-(trifluoromethyl)-3H-imidazo[4,5-b]pyridine], for which the mortality at 500 ppm with Nilaparvata lugens [3], with Plutella xylostella [1], in the data set with Spodoptera litura and with Myzus persicae was no less than 90% each time. The compound also displayed a mortality at 20 ppm with Nilaparvata lugens [2] of no less than 90%. Moreover, the pest or weed control (as a rule, the degree to which the test organism was suppressed or injured, in per cent) at 500 ppm in the data set on Plutella xylostella [4] is no less than 90%. Further, the mortality at 10 µg/cm2 with Rhipicephalus sanguineus and in the data set on Ctenocephalides felis was no less than 50% each time.
`CCS(=O)(=O)c1c(-c2nc3cc(C(F)(F)F)cnc3n2C)nc2cc(C(F)(F)F)ncn12` [1-1-055a, 2-[3-(ethylsulfonyl)-7-(trifluoromethyl)imidazo[1,2-c]pyrimidin-2-yl]-3-methyl-6-(trifluoromethyl)-3H-imidazo[4,5-b]pyridine] had a mortality at 500 ppm in the data set on Plutella xylostella [1] of no less than 90%. In addition, the mortality at 10 µg/cm2 with Rhipicephalus sanguineus and with Ctenocephalides felis was no less than 50% in each case.
As to `CCS(=O)(=O)c1c(-c2nc3cc(C(F)(F)F)ncc3n2C)nc2cc(C(F)(F)F)ccn12` [1-8-005a, 2-[3-(ethylsulfonyl)-7-(trifluoromethyl)imidazo[1,2-a]pyridin-2-yl]-3-methyl-6-(trifluoromethyl)-3H-imidazo[4,5-c]pyridine], the mortality at 500 ppm with Nilaparvata lugens [3], with Plutella xylostella [1], with Spodoptera litura and in the data set with Myzus persicae was no less than 90% each time. Moreover, the mortality at 20 ppm in the data set on Nilaparvata lugens [2] is no less than 90%. In the data set with Plutella xylostella [4], this compound had a pest or weed control at 500 ppm of no less than 90%. Besides, the mortality at 10 µg/cm2 in the data set on Rhipicephalus sanguineus and with Ctenocephalides felis was no less than 50% throughout.
Take `CCS(=O)(=O)c1c(-c2nc3cc(C(F)(F)F)cnc3n2C)nc2cc(C(F)(F)F)cnn12` [1-1-057a, 2-[3-(ethylsulfonyl)-7-(trifluoromethyl)imidazo[1,2-b]pyridazin-2-yl]-3-methyl-6-(trifluoromethyl)-3H-imidazo[4,5-b]pyridine]: the mortality at 500 ppm with Nilaparvata lugens [3] was no less than 90%; in the data set with Plutella xylostella [1] it was no less than 90%; in the data set on Spodoptera litura, no less than 90%; in data set [5], no less than 50%; in the data set with Myzus persicae, no less than 90%. In the data set with Nilaparvata lugens [2], this compound gave a mortality at 20 ppm of no less than 90%. In the data set on Plutella xylostella [4], this compound gave a pest or weed control at 500 ppm of no less than 90%. Moreover, the mortality at 10 µg/cm2 in the data set with Rhipicephalus sanguineus and in the data set on Ctenocephalides felis was no less than 50% throughout.
In the case of `CCSc1c(-c2nc3cc(SC(F)(F)F)cnc3n2C)nc2cc(C(F)(F)F)ccn12` [1-1-027b, 2-[3-(ethylthio)-7-(trifluoromethyl)imidazo[1,2-a]pyridin-2-yl]-3-methyl-6-((trifluoromethyl)thio)-3H-imidazo[4,5-b]pyridine], the mortality at 500 ppm in the data set on Plutella xylostella [1] and with Spodoptera litura was no less than 90% in each case. The mortality at 10 µg/cm2 in the data set on Rhipicephalus sanguineus and in the data set on Ctenocephalides felis was no less than 50% each time.
Turning to `CCSc1c(-c2nc3cc(C(F)(F)F)cnc3s2)nc2cc(C(F)(F)F)ccn12` [1-13-001b, 2-[3-(ethylthio)-7-(trifluoromethyl)imidazo[1,2-a]pyridin-2-yl]-6-(trifluoromethyl)thiazolo[5,4-b]pyridine], the melting point lay within 150 to 160 °C.
With `CC[S+]([O-])c1c(-c2nc3cc(C(F)(F)F)cnc3n2C)nc2cc(C(F)(F)F)cnn12` (stereo not drawn) [1-1-057c, 2-[3-(ethylsulfinyl)-7-(trifluoromethyl)imidazo[1,2-b]pyridazin-2-yl]-3-methyl-6-(trifluoromethyl)-3H-imidazo[4,5-b]pyridine], the mortality at 500 ppm in the data set on Nilaparvata lugens [3] was no less than 90%; with Plutella xylostella [1] it was no less than 90%; in the data set with Spodoptera litura, no less than 90%; in data set [5] it was no less than 50%; in the data set with Myzus persicae it was no less than 90%. Moreover, the mortality at 20 ppm in the data set on Nilaparvata lugens [2] was no less than 90%. In addition, the mortality at 10 µg/cm2 in the data set with Rhipicephalus sanguineus and with Ctenocephalides felis was no less than 50% throughout.
As for `CCSc1c(-c2nc3nc(C(F)(F)F)ccc3n2C)nc2cc(C(F)(F)F)ccn12` [1-7-001b, 2-[3-(ethylthio)-7-(trifluoromethyl)imidazo[1,2-a]pyridin-2-yl]-1-methyl-5-(trifluoromethyl)-1H-imidazo[4,5-b]pyridine], the melting point lay within 164 to 166 °C.
`CCSc1c(-c2nc3cc(I)cnc3n2C)nc2cc(C(F)(F)F)ccn12` [1-1-026b, 2-[3-(ethylthio)-7-(trifluoromethyl)imidazo[1,2-a]pyridin-2-yl]-6-iodo-3-methyl-3H-imidazo[4,5-b]pyridine] came in with a melting point of 230 to 233 °C.
